Reference: the NIST ThermoML archive (doi:10.1016/j.jct.2017.08.004)

Assay: molar heat capacity at constant pressure
Conditions: 101.33 kPa, Crystal, Small sample (50 mg) DSC

O[C@H]1[C@H](O)[C@@H](O)[C@H](O)[C@@H](O)[C@H]1O [cis-1,2,3,5-trans-4,6-cyclohexanehexol]
Conditions	molar heat capacity at constant pressure [J/K/mol]
415.15 K	313.72
416.15 K	314.29
417.15 K	315.14
418.15 K	315.93
419.15 K	316.51
420 K	317.18
420.15 K	317.13
421.15 K	317.97
422.15 K	318.68
423.15 K	319.32
424.15 K	320.07
425 K	320.78
425.15 K	320.77
426.15 K	321.54
427.15 K	322.27
428.15 K	322.94
429.15 K	323.6
430 K	324.37
430.15 K	324.79
431.15 K	325.38
432.15 K	325.96
433.15 K	326.58
434.15 K	327.17
435 K	327.98
435.15 K	328.13
436.15 K	328.94
437.15 K	329.55
438.15 K	330.45
439.15 K	331.25
440 K	331.62
440.15 K	332.08
441.15 K	332.75
442.15 K	333.52
443.15 K	334.28
444.15 K	334.91
445 K	335.31
445.15 K	335.69
446.15 K	336.45
447.15 K	337.11
448.15 K	337.97
449.15 K	338.86
450 K	339.09
450.15 K	339.61
451.15 K	340.28
452.15 K	340.91
453.15 K	341.76
454.15 K	342.6
455 K	342.97
455.15 K	343.62
456.15 K	344.29
457.15 K	345.24
458.15 K	346.14
459.15 K	346.94
460 K	346.99
460.15 K	347.73
461.15 K	348.37
462.15 K	349.07
463.15 K	349.91
464.15 K	350.64
465 K	351.2
